Measurements: patent publication US9662314B2, “Compounds and methods for the treatment of muscular disease, and related screening methods” (Tufts Medical Center, Inc., priority 2011, dated 2017)

Experiments:
[1] = test system: glucose transporter 1 (GLUT-1); settings: Jeong et al. 2011; cited from earlier work
[2] = test system: vascular endothelial growth factor (VEGF); settings: Jeong et al. 2011; cited from earlier work
[3] = test system: BIN1; settings: U2OS cells, third most up-regulated protein (Kang et al. 2006); cited from earlier work
[4] = test system: splicing factor hnRNP L; settings: U2OS cells, most up-regulated protein (Kang et al. 2006); cited from earlier work
[5] = test system: Smooth mutant Drosophila flies (sm homozygotes, that develop muscle dystrophy); assay: Survival of adult smooth mutant Drosophila flies treated with ascochlorin (FIG. 1); type: in vivo; settings: adult sm homozygote flies on paper discs, 1 mM solution in 9% sucrose, 10% ethanol, throughout lifespan, vs vehicle alone
Description: Smooth mutant Drosophila flies (sm homozygotes, that develop muscle dystrophy) were maintained on paper discs soaked either with ascochlorin (Santa Cruz Biotechnology, 1 mM solution in 9% sucrose, 10% ethanol), or with vehicle alone. The treatment was maintained throughout the lifespan of the organism. Unaffected control siblings (sm heterozygotes) were maintained on vehicle. The number of dead flies was recorded daily, and percent survival was plotted as a function of time in days.

[6] = test system: mammary carcinoma; settings: intraperitoneal administration, murine mammary carcinoma (Nakajima et al., 2007); cited from earlier work
[7] = test system: human osteosarcoma cells (U2OS); settings: proteome analysis (Kang et al. 2006); cited from earlier work
[8] = literature statement; cited from earlier work

| SMILES | expression of GLUT-1 [1] | expression of VEGF [2] | BIN1 up-regulation [3] | hnRNP L up-regulation [4] | survival time [5] | cancer growth [6] | survival [6] | increase in the levels of three proteins [7] | toxicity [8] |
| --- | --- | --- | --- | --- | --- | --- | --- | --- | --- |
| COc1c(Cl)c(C)c(C=O)c(O)c1C/C=C(C)/C=C/[C@@]1(C)[C@H](C)CCC(=O)[C@@H]1C [MAC, 4-O-methylascochlorin] | increases the expression | increases the expression |  |  |  |  |  |  |  |
| CC(/C=C/[C@@]1(C)[C@H](C)CCC(=O)[C@@H]1C)=C\Cc1c(O)c(Cl)c(C)c(C=O)c1O [ascochlorin] |  |  | 10 × | 12 × | prolonged survival time | significantly suppressed cancer growth | prolonged survival | ≥ 10 fold | non-toxic |
| C/C(=C\Cc1c(O)c(Cl)c(C)c(C=O)c1O)CC/C=C(\C)[C@@H]1CC(=O)C(C)(C)O1 [ascofuranone] |  |  |  |  |  |  |  |  | non-toxic |
